# Test results published in patent publication US9782464B2, “Methods and compositions for inhibiting diseases of the central nervous system” (Board of Regents of the University of Nebraska, priority 2008, dated 2017).
# Tests used:
# Format in all cases: cell-based, mouse
# [1] = system: anti-CD3 stimulated T cells; test: PI uptake cytotoxicity of anti-CD3 stimulated T cells (flow cytometry); details: 24 hours
# Description: To assess α-Syn-mediated cytotoxicity, purified T cells were stimulated with anti-CD3 and cultured at a density of 1×10^6 cells/ml for 24 hours in media alone or in the presence of 4YSyn or N-4YSyn at concentrations of 1, 3, 10, or 30 μg/ml. Cells were stained with PI, washed and the percentages of PI^+ dead cells and MFI were analyzed by flow cytometry.
# [2] = system: SPC (spleen cells); test: Antigen-specific 3H-thymidine proliferation of SPC from immunized mice
# [3] = system: TNF-α; test: Cytometric bead array of T cells restimulated with antigen; details: T cells from N-4YSyn-immunized donors restimulated in vitro
# Description: Triplicate co-cultures of antigen presenting cells (APC) and T cells from PBS, 4YSyn- and N-4YSyn-immunized mice were stimulated with 4YSyn or N-4YSyn. After 24 hours of culture, 50 μl samples were collected, centrifuged, and supernatants frozen at −80° C. until utilized. Frozen supernatants were thawed only once and analyzed using the BD Cytometric Bead Array Mouse Th1/Th2 Kit (BD Biosciences, San Jose, Calif.) according to the manufacturer's instructions.
# [4] = system: effector T cells; test: Treg inhibition of CD3-mediated effector T cell proliferation; details: Treg from FoxP3-GFP donors, ratio of 1:1
# Description: Seven days following treatment, mice were sacrificed and single cell suspensions were prepared from inguinal lymph nodes and spleens. CD4+ T cell populations from spleens and lymph nodes were enriched by negative selection with CD4-enrichment columns (R & D Systems) followed by CD25-PE positive selection with AutoMACS (Miltenyi Biotec). […] Proliferation and inhibition assays were performed as described. MPTP-intoxicated mice received an i.v. tail injection of 5×10^7 SPC or 1×10^6 Treg in 0.25 ml of HBSS.
substance,measurement,setting,value
N-4YSyn: peroxynitrite-nitrated recombinant His-tagged C-terminal 40 aa fragment of mouse α-Syn,% PI+ T cells,[1]; 1 μg/ml,15.9%
same,MFI of PI-stained T cells,[1]; 1 μg/ml,42.8
same,% PI+ T cells,[1]; 3 μg/ml,17.9%
same,MFI of PI-stained T cells,[1]; 3 μg/ml,58.7
same,% PI+ T cells,[1]; 10 μg/ml,47.8%
same,MFI of PI-stained T cells,[1]; 10 μg/ml,71.6
same,% PI+ T cells,[1]; 30 μg/ml,91.3%
same,MFI of PI-stained T cells,[1]; 30 μg/ml,106.1
same,proliferative response of SPC to in vitro stimulation with the antigen,[2]; B6 mice immunized with N-4YSyn/PBS without adjuvant,significant lymphocyte proliferative response
same,proliferative response of SPC to in vitro stimulation with the antigen,[2]; B10.BR mice immunized in CFA/IFA,significant proliferative responses
same,TNF-α levels,[3],26.0 ± 1.2 pg/mL
same,inhibition of effector T cell proliferation to anti-CD3 stimulation by Treg,[4],20%
